DBAASP
In brackets after ≈: the same amount, converted by molar mass. Several values for one entry are separate records, joined by “and”; a condition that tells them apart may be missing. Identical values can stand only once.

Key:
Test in all cases: ≥ marks a high value that may be exact or a test limit, other limits are often not marked, values filed in µg/mL are converted to µM
Bacillus subtilis 168 = tested on: Bacillus subtilis 168
[1] = tested on: Candida glabrata CG196/98IDE
Candida krusei CK802/97 = tested on: Candida krusei CK802/97
Escherichia coli B = tested on: Escherichia coli B
Pseudomonas aeruginosa = tested on: Pseudomonas aeruginosa
Staphylococcus aureus = tested on: Staphylococcus aureus
[2] = tested on: Bacillus cereus ATCC 11778
[3] = tested on: Bacillus subtilis CCT 2471
Bacillus thuringiensis = tested on: Bacillus thuringiensis
[4] = tested on: Candida albicans ATCC 18804
[5] = tested on: Escherichia coli CCT 1371
[6] = tested on: Klebsiella aerogenes ATCC 13048
Proteus mirabilis = tested on: Proteus mirabilis
[7] = tested on: Pseudomonas aeruginosa ATCC 15442
[8] = tested on: Pseudomonas aeruginosa ATCC 27853
[9] = tested on: Salmonella enterica subsp. enterica serovar Typhimurium ATCC 14028
[10] = tested on: Staphylococcus aureus ATCC 25293
[11] = tested on: Staphylococcus aureus ATCC 29213
[12] = tested on: Staphylococcus aureus ATCC 6538
[13] = tested on: Staphylococcus saprophyticus
[14] = tested on: Bacillus subtilis ATCC 6633
[15] = tested on: Escherichia coli ATCC 25922
[16] = tested on: Klebsiella pneumoniae ATCC 10031
[17] = tested on: Micrococcus luteus ATCC 10240
[18] = tested on: Shigella dysenteriae ATCC 9752
[19] = tested on: Staphylococcus aureus ATCC 6538P
[20] = tested on: Staphylococcus aureus TK784
[21] = tested on: Staphylococcus epidermidis ATCC 12228

CC[C@H](C)[C@H](NC(=O)[C@H](CC(C)C)NC(=O)[C@H](CCCCN)NC(=O)CNC(=O)[C@H](CC(C)C)NC(=O)[C@@H](NC(=O)[C@H](CCCCN)NC(=O)[C@H](CCCCN)NC(=O)[C@H](Cc1c[nH]c2ccccc12)NC(=O)[C@H](CCSC)NC(=O)CN)[C@@H](C)CC)C(=O)N[C@@H](CCCN=C(N)N)C(N)=O [GMWKKILGKLIR]
MIC (Bacillus subtilis 168): 0.8 µM (≈ 1.15 µg/mL) | MIC [1]: ≥ 87 µM | MIC (Candida krusei CK802/97): 28 µM and 13 µM | MIC (Escherichia coli B): 2.3 µM (≈ 3.32 µg/mL) | MIC (Pseudomonas aeruginosa): 13.1 µM (≈ 18.9 µg/mL) | MIC (Staphylococcus aureus): 15 µM (≈ 21.6 µg/mL)

CC[C@H](C)[C@H](N)C(=O)N[C@@H](Cc1ccccc1)C(=O)NCC(=O)N[C@@H](C)C(=O)N[C@H](C(=O)N[C@@H](Cc1c[nH]c2ccccc12)C(=O)N[C@@H](CC(N)=O)C(=O)NCC(=O)N[C@H](C(=O)N[C@@H](CCCCN)C(=O)N[C@@H](CO)C(=O)N[C@@H](CC(C)C)C(=O)N[C@@H](Cc1ccccc1)C(=O)O)[C@@H](C)CC)[C@@H](C)CC [IFGAIWNGIKSLF]
MIC [2]: ≥ 68.2 µM | MIC [3]: 6.8 µM (≈ 9.97 µg/mL) | MIC (Bacillus thuringiensis): 17.1 µM (≈ 25.1 µg/mL) | MIC [4]: 12.5 µM (≈ 18.3 µg/mL) | MIC [5]: 3.4 µM (≈ 4.98 µg/mL) | MIC [6]: ≥ 68.2 µM | MIC (Proteus mirabilis): ≥ 150 µM | MIC [7]: ≥ 150 µM | MIC [8]: 68.3 µM (≈ 100 µg/mL) | MIC [9]: 68.2 µM (≈ 100 µg/mL) | MIC [10]: 0.7 µM (≈ 1.03 µg/mL) | MIC [11]: 34.1 µM (≈ 50 µg/mL) | MIC [12]: 3.4 µM (≈ 4.98 µg/mL) | MIC [13]: 0.7 µM (≈ 1.03 µg/mL)

CC(C)C[C@H](NC(=O)[C@H](CC(C)C)NC(=O)[C@H](CCCCN)NC(=O)[C@H](CCCCN)NC(=O)[C@H](CC(C)C)NC(=O)[C@H](CC(C)C)NC(=O)[C@H](CCCCN)NC(=O)[C@H](CCCCN)NC(=O)[C@@H](N)CC(C)C)C(=O)N[C@@H](CCCCN)C(=O)N[C@@H](Cc1c[nH]c2ccccc12)C(N)=O [LKKLLKKLLKW]
MIC [14]: 1.42 µM (≈ 2 µg/mL) | MIC [15]: 2.84 µM (≈ 4 µg/mL) | MIC [16]: 2.84 µM (≈ 4 µg/mL) | MIC [17]: 2.84 µM (≈ 4 µg/mL) | MIC [8]: 2.84 µM (≈ 4 µg/mL) | MIC [9]: 2.84 µM (≈ 4 µg/mL) | MIC [18]: 1.42 µM (≈ 2 µg/mL) | MIC [19]: 1.42 µM (≈ 2 µg/mL) | MIC [20]: 11.3 µM (≈ 16 µg/mL) | MIC [21]: 1.42 µM (≈ 2 µg/mL)
